In ChEMBL document CHEMBL1201862, “PubChem BioAssay data set” (2004):
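1) Cells in 96-well plates. 2) Compound, 48 h, 5 concentrations. 3) Linear interpolation between surrounding doses. 4) Unreached endpoint = highest concentration. GI50 marks 50% less growth.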 Active and inactive are the calls of the source. No stated cut-off is given here; in the data, active = GI50 up to about 1.1 µM and inactive = higher.

Experiments:
Assay in all cases: NCI-60 cell line screen, 48 h
SK-MEL-2 = test system: SK-MEL-2
HCT-15 = test system: HCT-15
SR = test system: SR
SF-268 = test system: SF-268
SW-620 = test system: SW-620
SK-MEL-28 = test system: SK-MEL-28
SNB-75 = test system: SNB-75
A549 = test system: A549
COLO 205 = test system: COLO 205
EKVX = test system: EKVX
HOP-62 = test system: HOP-62
UACC-257 = test system: UACC-257
Hs-578T = test system: Hs-578T
HT-29 = test system: HT-29
NCI/ADR-RES = test system: NCI/ADR-RES
MDA-MB-231 = test system: MDA-MB-231
Malme-3M = test system: Malme-3M
RXF 393 = test system: RXF 393
SK-MEL-5 = test system: SK-MEL-5
SK-OV-3 = test system: SK-OV-3
OVCAR-5 = test system: OVCAR-5
PC-3 = test system: PC-3
786-0 = test system: 786-0
CCRF-CEM = test system: CCRF-CEM
LOX IMVI = test system: LOX IMVI
BT-549 = test system: BT-549
NCI-H460 = test system: NCI-H460
UO-31 = test system: UO-31
RPMI-8226 = test system: RPMI-8226
IGROV-1 = test system: IGROV-1
T47D = test system: T47D
A498 = test system: A498
MDA-MB-435 = test system: MDA-MB-435
SF-295 = test system: SF-295
OVCAR-4 = test system: OVCAR-4
SN12C = test system: SN12C
ACHN = test system: ACHN
HOP-92 = test system: HOP-92
SNB-19 = test system: SNB-19
CAKI-1 = test system: CAKI-1
OVCAR-8 = test system: OVCAR-8
MOLT-4 = test system: MOLT-4
HL-60 = test system: HL-60
NCI-H23 = test system: NCI-H23
DU-145 = test system: DU-145
NCI-H226 = test system: NCI-H226
K562 = test system: K562
M14 = test system: M14
UACC-62 = test system: UACC-62
OVCAR-3 = test system: OVCAR-3
MCF7 = test system: MCF7
HCT-116 = test system: HCT-116
KM12 = test system: KM12
HCC 2998 = test system: HCC 2998
U-251 = test system: U-251
NCI-H522 = test system: NCI-H522
SF-539 = test system: SF-539
TK-10 = test system: TK-10
MDA-N = test system: MDA-N

Measured: GI50

CC1OC(OC2C(OC(=O)[C@]34CCC(C)(C)C[C@H]3C3=CC[C@@H]5[C@@]6(C)CC[C@H](OC7OC(C(=O)O)C(O)C(O)C7O)C(C)(C)[C@@H]6CC[C@@]5(C)[C@]3(C)C[C@H]4O)OCC(O)C2O)C(O)C(O)C1OC1OCC(OC2OCC(O)C(O)C2O)C(O)C1O (stereo not given in full)
14.7 µM: HCT-15
inactive: SK-MEL-2 2.96 µM | SR 7.23 µM | SF-268 12.6 µM | SW-620 10.9 µM | SK-MEL-28 3.44 µM | SNB-75 13.2 µM | A549 3.9 µM | COLO 205 1.89 µM | EKVX 4.16 µM | HOP-62 13.2 µM | UACC-257 8.63 µM | Hs-578T 19.1 µM | HT-29 3.4 µM | NCI/ADR-RES 11.1 µM | MDA-MB-231 3.45 µM | Malme-3M 11.4 µM | RXF 393 14.3 µM | SK-MEL-5 13.9 µM | SK-OV-3 13.8 µM | OVCAR-5 6.75 µM | PC-3 6.46 µM | 786-0 11.1 µM | CCRF-CEM > 10 µM | LOX IMVI 11.9 µM | BT-549 3.28 µM | NCI-H460 16.4 µM | UO-31 2.13 µM | RPMI-8226 10.7 µM | IGROV-1 12.8 µM | T47D 7.16 µM | A498 1.48 µM | MDA-MB-435 4.59 µM | SF-295 10.2 µM | OVCAR-4 5.32 µM | SN12C 2.42 µM | ACHN 4.72 µM | HOP-92 6.01 µM | SNB-19 5.51 µM | CAKI-1 9.73 µM | OVCAR-8 15.9 µM | MOLT-4 14.8 µM | HL-60 3.96 µM | NCI-H23 2.14 µM | DU-145 11.3 µM | NCI-H226 6.92 µM | K562 11.4 µM | M14 3.52 µM | UACC-62 11 µM | OVCAR-3 15.9 µM | MCF7 5.07 µM | HCT-116 4.66 µM | KM12 3.61 µM | HCC 2998 1.53 µM | U-251 7.85 µM | NCI-H522 4.94 µM

CC(C)CCC[C@@H](C)[C@H]1CC[C@H]2C3=C[C@H](OS(=O)(=O)O)[C@@]4(O)C[C@@H](O)CC[C@]4(C)[C@@]3(O)CC[C@]12C
> 100 µM: HCT-15
inactive: SK-MEL-2 > 100 µM | SR 68.5 µM | SF-268 > 100 µM | SW-620 > 100 µM | SK-MEL-28 > 100 µM | A549 > 100 µM | COLO 205 > 100 µM | EKVX > 100 µM | HOP-62 > 100 µM | UACC-257 > 100 µM | HT-29 42 µM | NCI/ADR-RES > 100 µM | MDA-MB-231 > 100 µM | Malme-3M > 100 µM | RXF 393 > 100 µM | SK-MEL-5 > 100 µM | SK-OV-3 > 100 µM | OVCAR-5 > 100 µM | PC-3 > 100 µM | 786-0 > 100 µM | CCRF-CEM 49.2 µM | LOX IMVI > 100 µM | BT-549 > 100 µM | NCI-H460 > 100 µM | UO-31 > 100 µM | RPMI-8226 > 100 µM | IGROV-1 > 100 µM | T47D 83.6 µM | A498 > 100 µM | MDA-MB-435 > 100 µM | SF-295 > 100 µM | OVCAR-4 > 100 µM | SN12C > 100 µM | ACHN > 100 µM | HOP-92 > 100 µM | SNB-19 > 100 µM | CAKI-1 > 100 µM | OVCAR-8 > 100 µM | MOLT-4 42.7 µM | SF-539 > 100 µM | NCI-H23 > 100 µM | DU-145 > 100 µM | NCI-H226 60 µM | K562 45.6 µM | M14 > 100 µM | UACC-62 > 100 µM | OVCAR-3 > 100 µM | MCF7 > 100 µM | HCT-116 98.9 µM | TK-10 > 100 µM | MDA-N > 100 µM | KM12 84.5 µM | HCC 2998 > 100 µM | U-251 > 100 µM | NCI-H522 > 100 µM

Cn1c(=O)cc(NNc2ccc(Br)cc2)[nH]c1=O
inactive: SR 3.43 µM | SW-620 4.5 µM | SK-MEL-28 17.3 µM | A549 13.9 µM | COLO 205 2.58 µM | EKVX 16.5 µM | HOP-62 12.8 µM | UACC-257 15.3 µM | Hs-578T 3.88 µM | HT-29 3.53 µM | NCI/ADR-RES 31.1 µM | MDA-MB-231 14.6 µM | Malme-3M 16.6 µM | SK-MEL-5 16.6 µM | OVCAR-5 13.4 µM | PC-3 10 µM | 786-0 9.59 µM | LOX IMVI 2.11 µM | BT-549 16.9 µM | NCI-H460 4.26 µM | UO-31 16.4 µM | RPMI-8226 6 µM | IGROV-1 11.1 µM | A498 44.3 µM | MDA-MB-435 12.4 µM | SF-295 13.4 µM | OVCAR-4 16 µM | SN12C 10.7 µM | ACHN 14 µM | HOP-92 13.9 µM | SNB-19 13.6 µM | OVCAR-8 19.1 µM | HL-60 2.99 µM | SF-539 3.31 µM | DU-145 6.55 µM | NCI-H226 18.2 µM | K562 1.17 µM | M14 15.5 µM | OVCAR-3 3.99 µM | MCF7 10.4 µM | HCT-116 10.4 µM | TK-10 20.3 µM | MDA-N 14.7 µM | KM12 2.24 µM | HCC 2998 4.59 µM | U-251 3.05 µM
6.71 µM: HCT-15
active: CCRF-CEM 0.431 µM | MOLT-4 0.558 µM

COc1cc(S(=O)(=O)Nc2ccc(-c3csc(N4C(=O)C(C)SC4c4ccccc4O)n3)cc2)ccc1Cl (stereo not given)
36.9 µM: HCT-15
inactive: SK-MEL-2 42 µM | SR 36.2 µM | SF-268 21.3 µM | SW-620 34.8 µM | SK-MEL-28 16.1 µM | SNB-75 28.8 µM | A549 > 100 µM | COLO 205 25.2 µM | EKVX 28.8 µM | HOP-62 82.6 µM | Hs-578T 31.2 µM | HT-29 56.9 µM | NCI/ADR-RES > 100 µM | Malme-3M 17.9 µM | SK-MEL-5 32.1 µM | SK-OV-3 > 100 µM | OVCAR-5 95.1 µM | PC-3 29.9 µM | 786-0 35.1 µM | CCRF-CEM 25.9 µM | LOX IMVI 29.9 µM | BT-549 27 µM | UO-31 38.6 µM | RPMI-8226 32.1 µM | IGROV-1 35.8 µM | T47D 13.3 µM | A498 > 100 µM | MDA-MB-435 37.8 µM | SF-295 59.3 µM | SN12C 40.9 µM | ACHN 65.8 µM | HOP-92 31.3 µM | SNB-19 > 100 µM | CAKI-1 85.9 µM | OVCAR-8 40.9 µM | MOLT-4 27.1 µM | HL-60 27.3 µM | SF-539 34.8 µM | NCI-H23 30.1 µM | DU-145 41.3 µM | NCI-H226 28.6 µM | K562 32.8 µM | M14 40.2 µM | UACC-62 31 µM | OVCAR-3 69.5 µM | MCF7 35.2 µM | HCT-116 30.1 µM | MDA-N 28.6 µM | KM12 29.7 µM | NCI-H522 18.3 µM

O=[N+]([O-])c1ccc2c(/N=N/c3ccc4ccccc4c3O)c(O)cc(S(=O)(=O)O)c2c1
inactive: SK-MEL-2 23 µM | SR > 29.3 µM | SF-268 8.89 µM | SW-620 18.7 µM | SK-MEL-28 12 µM | SNB-75 26.7 µM | A549 40.6 µM | COLO 205 27.7 µM | EKVX 14.7 µM | HOP-62 24.9 µM | UACC-257 31.3 µM | Hs-578T 41 µM | HT-29 44.5 µM | NCI/ADR-RES 11.1 µM | MDA-MB-231 35 µM | Malme-3M 18.3 µM | RXF 393 17.9 µM | SK-MEL-5 15.8 µM | SK-OV-3 18.7 µM | OVCAR-5 15.1 µM | PC-3 18.2 µM | 786-0 18.7 µM | CCRF-CEM 8.77 µM | LOX IMVI 6.65 µM | BT-549 25.7 µM | NCI-H460 38.5 µM | UO-31 5.78 µM | RPMI-8226 17.8 µM | IGROV-1 8.65 µM | T47D 20.4 µM | A498 35.3 µM | MDA-MB-435 16.7 µM | SF-295 32 µM | OVCAR-4 9.64 µM | SN12C 38.5 µM | ACHN 7.13 µM | HOP-92 21.6 µM | SNB-19 13.2 µM | CAKI-1 12.6 µM | OVCAR-8 7.41 µM | MOLT-4 3.98 µM | HL-60 9.06 µM | SF-539 11.4 µM | NCI-H23 31.3 µM | DU-145 18.7 µM | NCI-H226 4.66 µM | K562 20.6 µM | M14 6.76 µM | UACC-62 7.21 µM | OVCAR-3 4.89 µM | MCF7 30.3 µM | HCT-116 19.5 µM | TK-10 > 65.3 µM | KM12 31.8 µM | HCC 2998 39.5 µM | U-251 7.41 µM | NCI-H522 7.71 µM
9.93 µM: HCT-15
